pIC50: −log10 of the molar value.
Target: Adenosine receptor A2a (Homo sapiens) (UniProt P29274)
Test: Negative allosteric modulation of A2AR (unknown origin) expressed in CHO cells in presence of adenosine by CamBio assay

Sequence of Adenosine receptor A2a (Homo sapiens) (P29274 whole entry, looked up): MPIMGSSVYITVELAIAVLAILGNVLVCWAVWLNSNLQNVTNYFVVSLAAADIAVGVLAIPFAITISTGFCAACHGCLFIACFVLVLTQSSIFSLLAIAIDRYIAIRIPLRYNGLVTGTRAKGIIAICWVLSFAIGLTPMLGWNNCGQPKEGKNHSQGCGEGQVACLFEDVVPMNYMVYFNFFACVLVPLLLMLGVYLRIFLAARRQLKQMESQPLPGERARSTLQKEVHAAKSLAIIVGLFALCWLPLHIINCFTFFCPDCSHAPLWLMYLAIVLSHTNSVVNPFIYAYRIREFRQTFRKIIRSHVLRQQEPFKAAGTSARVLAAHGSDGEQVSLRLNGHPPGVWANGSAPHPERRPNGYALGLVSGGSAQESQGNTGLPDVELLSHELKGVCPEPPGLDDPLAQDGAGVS

pIC50: 8.05
Structure (SMILES): N#Cc1c(N)nc(N2CCCCC2)c(C#N)c1-c1cccnc1

— BindingDB's records for PubMed 39882870 (University of Modena and Reggio Emilia)
